According to patent publication US4385060A, “Penicillins” (Beecham Group Limited, priority 1979, dated 1983):
“Also recorded” adds a separate entry of the source.

What was measured:
[1] = Oral absorption in fasting human volunteers (syrup): serum ticarcillin, AUC and urinary excretion by bio-assay, Experiments A-D; type: in vivo
Experimental: To obtain the results shown in table 1, the two esters of ticarcillin were each given to a panel of fasting human volunteers in a syrup formulation in an amount equivalent to provide either 200 or 400 mg (as stated in table 1) of the free ticarcillin after the expected in vivo hydrolysis. Periodic blood samples were taken from the volunteers and each assayed for ticarcillin content by a standard bio-assay technique. The urine excreted by each volunteer within the 6 hours following administration was also collected and assayed for the free ticarcillin. All three parameters (viz the urinary excretion level, the peak serum concentration achieved and the total area under the curve when the serum concentration is plotted against time) are indications of the minimum degree to which the penicillin ester has been absorbed after oral administration and then hydrolysed in vivo.

[2] = Intact ester in blood and urine after oral administration to human volunteers; type: in vivo; details: urine, read-out: ester present in urine
[3] = Oral administration as syrup equivalent to 400 mg ticarcillin, phenyl vs p-tolyl ester (data of British Pat. No. 1,455,529); type: in vivo, man
Excerpt: The improved bioavailability can also be seen from the individual mean serum concentration figures in table 1. […] This can be seen by the comparison with the phenyl ester and for convenience the data from specification No. 1,455,529 is repeated in table 3 below:
(Administration as syrup containing equivalent

[4] = in words; cited from earlier work

urinary recovery of ticarcillin compared to the phenyl ester ([1]; in words) | bioavailability as measured by AUC higher than for the phenyl ester ([1]; o-tolyl vs phenyl ester, oral, man, overall) | oral absorption compared to the ortho ester ([3]; in words, p-tolyl vs α-ortho ester) | statistical significance of differences in mean serum concentrations ([3]; p-tolyl vs phenyl ester, table 3) | Structure (SMILES) | bioavailability of ticarcillin after oral administration compared to the phenyl ester ([1]; in words, AUC, listed as α-ortho-tolyl ester) | dose excreted at 6 h [2] | oral absorption in man [4]
greater urinary recovery | 120-220% |  |  | Cc1ccccc1OC(=O)C(C(=O)N[C@@H]1C(=O)N2[C@@H]1SC(C)(C)[C@@H]2C(=O)O)c1ccsc1 (stereo partly drawn) [o-tolyl, 6β-[2-(2'-methylphenoxycarbonyl)-2-thien-3'-ylacetamido]penicillanic acid] | considerably greater; also recorded: two- to three-fold greater | ~2% | 
 |  | much less well absorbed | not statistically significant | Cc1ccc(OC(=O)C(C(=O)N[C@@H]2C(=O)N3[C@@H]2SC(C)(C)[C@@H]3C(=O)O)c2ccsc2)cc1 (stereo partly drawn) [p-tolyl, α-para-tolyl mono-ester of α-carboxy-3-thienylmethyl penicillin] |  |  | high degree of oral absorption in man
 |  |  |  | CC1(C)S[C@@H]2[C@H](NC(=O)C(C(=O)Oc3ccccc3)c3ccsc3)C(=O)N2[C@H]1C(=O)O (stereo partly drawn) [phenyl, α-phenyl ester of α-carboxy-3-thienylmethyl penicillin, reference compound] |  | ~1% | 
